The data set can be described thus: Human HepG2 cell viability assay in 384 well format. The data set is classed as toxicity, cell-based. More on the design: dose 125 nL, time 70.5 hour; cytotoxicity at 70.5 h: concentration not given beside the values. The settings on record: HepG2 cells, read-out: Inhibition.
`CN(C)c1ccccc1CN1CCCC(N2CCCC2=O)C1` (stereo unspecified): the cytotoxicity at 70.5 h was -8.7%. Consider `Cc1cc(C)c2ncc(C#N)c(N3CCS(=O)(=O)CC3)c2c1`, for which the cytotoxicity at 70.5 h is -7.23%.

Take `CCOCCC(=O)N1CCN(CC(C)O)CC1` (stereo unspecified): the cytotoxicity at 70.5 h came out at 16%. With `CC(=O)Nc1cccc(CN2CCCC2C(=O)Nc2nccs2)c1` (stereo unspecified), the cytotoxicity at 70.5 h was 17.5%.

On to `CN(C)C(C)(C)CNCc1c[nH]nc1-c1cc2ccccc2o1`, for which the cytotoxicity at 70.5 h came to 10%. As for `CCN(CC)CCn1cc(NC2CCN(C(C)(C)C)CC2)cn1`, the cytotoxicity at 70.5 h worked out at 5.68%.

Regarding `CC(=O)N(C)Cc1cccc(NC(=O)CCCc2nc(C(C)C)no2)c1`, the cytotoxicity at 70.5 h is 9.44%. On to `CCN(CC(=O)Nc1cc(Cl)ccc1C)C(=O)c1ccncc1`, for which the cytotoxicity at 70.5 h was -1.81%. `CCN(CC(=O)Nc1cc(Cl)ccc1C)C(=O)c1cnccn1`: the cytotoxicity at 70.5 h was determined as 0.456%. As for `CCCNC(=O)CNC(=O)c1scnc1C`, the cytotoxicity at 70.5 h amounted to 3.25%. For the compound `Cc1cc(C(=O)Nc2ccc3c(ccn3CCN3CCOCC3)c2)on1`, the cytotoxicity at 70.5 h is -5.31%.

For `Cc1nc(N2CCC(CN3CCCC3)CC2)c2cnn(C)c2n1`, the cytotoxicity at 70.5 h was -2.49%. For the compound `Cn1ncc2c(N3CCC(CC(=O)N4CCCC4)CC3)ncnc21`, the cytotoxicity at 70.5 h is -4.03%. As for `CC1CCC(NC(=O)CNC2(c3ccc(Br)cc3)CCOCC2)CC1` (stereo unspecified), the figure is 4.23%; as for `CCN(CC(=O)N(C)C)C(=O)c1nc(C)n(-c2ccccc2Cl)n1`, -0.577%. For the compound `CCC(C)C(=O)NCc1c(C)nn(C)c1N1CCCN(C)CC1` (stereo unspecified), the cytotoxicity at 70.5 h is 1.79%. `COC(=O)COc1ccc(-c2noc(C3CCCO3)n2)cc1` (stereo unspecified): the cytotoxicity at 70.5 h worked out at 24.5%. For `O=C(NCCc1noc(-c2ccccn2)n1)NCC1CCCC1` the value was -4.99%; for `CC(Nc1cccc2c1OCCO2)C(=O)Nc1ccc(S(N)(=O)=O)cc1` (stereo unspecified), 25.1%. For `CCc1ccc(NC(=O)C(C)Nc2cccc3c2OCCO3)cc1` (stereo unspecified) the value was 2%; for `CC(=O)N1CCN(C(=O)CN2CCCC2c2c(C)nn(C)c2C)CC1` (stereo unspecified), 7.11%; for `Cn1cc(CC2CC(=O)N(Cc3ccc(OC(F)F)cc3)C2=O)cn1` (stereo unspecified), 3.06%. For `Cc1nn(C)c(N2CCCN(C)CC2)c1CNC(=O)CCC(C)C`, the cytotoxicity at 70.5 h was -1.98%. As for `CCOCCC1(CNC(=O)c2ccncc2)CCC1`, the cytotoxicity at 70.5 h was -5.08%. As for `CCN(CC)CCn1cc(NC2CCSCC2)cn1`, the figure is -1.75%; as for `CCc1nc(CN(C)CC(=O)N(C)C2CC2)cs1`, -12.2%. Turning to `Cc1n[nH]c(C2CN(C(=O)CCOCC(F)(F)F)CCO2)n1` (stereo unspecified), the cytotoxicity at 70.5 h is -10.1%. Regarding `O=C(Cn1cccn1)Nc1ccc(N2CCCCC2)cc1`, the cytotoxicity at 70.5 h was found to be 31.5%. As for `COCCS(=O)(=O)Cc1csc(NC(C)=O)n1`, the figure is -16%. For `Cc1nn(CC(C)C)c(C)c1CC(=O)N1CCCC(NS(C)(=O)=O)C1` (stereo unspecified), the cytotoxicity at 70.5 h is -3.7%.

Regarding `O=C(NCC(O)COc1ccc(C(F)(F)F)cc1)Nc1nncs1` (stereo unspecified), the cytotoxicity at 70.5 h was -12.1%. Take `CCOc1ccc(NCC(=O)NCC(=O)N2CCCC2)c(C(F)(F)F)c1`: the cytotoxicity at 70.5 h is -11.7%. As to `O=C(NCC1CCS(=O)(=O)C1)c1cccc(CN2CCCC2)c1` (stereo unspecified), the cytotoxicity at 70.5 h is -16%. In the case of `NC(=O)C1CCN(CCc2ccc(NCc3ccoc3)cc2)CC1`, the cytotoxicity at 70.5 h is -5.59%.

Take `Cn1cc(CNc2ccc(CCN3CCC(C(N)=O)CC3)cc2)cn1`: the cytotoxicity at 70.5 h was 13.6%.

As to `CC(NC1CCN(C(=O)C2CCCCC2)CC1)c1nccs1` (stereo unspecified), the cytotoxicity at 70.5 h was -6.15%. Regarding `C=C(C)CN(CC)S(=O)(=O)c1cccc(F)c1C#N`, the cytotoxicity at 70.5 h was -9.8%.

As for `COc1ccc(NC(C)c2ccc(C#N)cc2)cc1N1CCCC1=O` (stereo unspecified), the cytotoxicity at 70.5 h was 1.58%.

As for `CCN(C(C)c1cccc(O)c1)S(=O)(=O)c1cccnc1` (stereo unspecified), the cytotoxicity at 70.5 h is 5.84%. With `COc1ccc(F)c(NCc2cnn(C3CCS(=O)(=O)C3)c2)c1` (stereo unspecified), the cytotoxicity at 70.5 h amounted to 8.41%. As for `Cc1ncc(CN(C)C(=O)Nc2cccc(N3CCNC3=O)c2)s1`, the figure is -3.19%; as for `COc1ccc(CNC(=O)Nc2ccc(=O)n(C)c2)cc1`, -3.5%.

Regarding `Cn1cc(NC(=O)NCc2ccsc2)ccc1=O`, the cytotoxicity at 70.5 h was -2.03%. On to `CC(NC(=O)c1cccc[n+]1[O-])c1ccc2c(c1)CCC(=O)N2` (stereo unspecified), for which the cytotoxicity at 70.5 h is -3.74%. For `CCOC1CCN(C(=O)c2ccc(-n3ncc(C#N)c3N)cc2)CC1`, the cytotoxicity at 70.5 h is -0.409%. Consider `Cc1csc(C2CCCCN2C(=O)COCc2nc(C)no2)n1` (stereo unspecified), for which the cytotoxicity at 70.5 h is -4.26%. On to `CCN(CC)C(=O)c1cc(Br)cc(S(=O)(=O)N2CCOCC2)c1F`, for which the cytotoxicity at 70.5 h was -2.06%. For `Cc1ccc(CN(C(=O)C(C)NC(N)=O)C2CC2)cc1C` (stereo unspecified) the value was 25.3%. For `CC(C)NC(=O)c1cc(Br)cc(S(=O)(=O)N2CCOCC2)c1F` the value was -0.805%; for `CCCC1SCCN1C(=O)c1ccc(-n2ncc(C#N)c2N)cc1` (stereo unspecified), -3.53%.

For the compound `CC(=O)NC(C)C(=O)N(Cc1ccc(C)c(C)c1)C1CC1` (stereo unspecified), the cytotoxicity at 70.5 h is 0.332%. For `Cn1cc(NC(=O)c2cccc(C(F)(F)F)c2)c(=O)n(C)c1=O`, the cytotoxicity at 70.5 h was -2.92%.

As for `Cc1cc(C(=O)O)ccc1NS(=O)(=O)c1c(C)nn(C(C)C)c1C`, the cytotoxicity at 70.5 h was -5.01%. Regarding `Cc1ccc(CNc2ccn(CCc3ccncc3)n2)s1`, the cytotoxicity at 70.5 h turned out to be 2.73%. On to `Cc1noc(COCC(=O)N2CCCCC2c2nccs2)n1` (stereo unspecified), for which the cytotoxicity at 70.5 h was -8.06%. With `Cn1cc(S(=O)(=O)N2CCCC2Cn2ccnc2)cc1C(N)=O` (stereo unspecified), the cytotoxicity at 70.5 h is -5.85%.

As to `Cc1nc(C)c(CCNC(Cc2ccncc2)C(F)(F)F)s1` (stereo unspecified), the cytotoxicity at 70.5 h was 2.53%. For `Cc1noc(COCC(=O)N2CCCC(c3nccs3)C2)n1` (stereo unspecified), the cytotoxicity at 70.5 h is -6.88%. On to `Cc1cc(N2CCOCC2)ccc1NC(C)c1nc(C(C)(C)C)no1` (stereo unspecified), for which the cytotoxicity at 70.5 h is -6.63%. On to `CC(C)C(NC(=O)Nc1ccc(F)cc1)C(=O)N(C)C` (stereo unspecified), for which the cytotoxicity at 70.5 h came out at 3.02%. As to `Cc1ccc(C)c(OC2CCN(C(=O)NCC(=O)N3CCCC3)CC2)c1`, the cytotoxicity at 70.5 h was -5.3%. For `CCN1CCN(c2ccc(NC(C)c3nc(C(C)C)no3)c(C)c2)CC1` (stereo unspecified), the cytotoxicity at 70.5 h is -12.5%. For the compound `CC(C)(C)n1nc(C(=O)NC2CCN(CC(N)=O)CC2)cc1C1CC1`, the cytotoxicity at 70.5 h is -11.7%. As for `Cc1cc(NC(=O)C(C)Nc2cccc(COCc3ccco3)c2)on1` (stereo unspecified), the cytotoxicity at 70.5 h is -20.2%. On to `N#Cc1ccc(NCc2cccc(OCC3CCCO3)c2)nc1` (stereo unspecified), for which the cytotoxicity at 70.5 h is -8.7%. On to `Cc1cc(N2CCCC2c2nnc3n2CCCCC3)nc(N)n1` (stereo unspecified), for which the cytotoxicity at 70.5 h came to 22.8%. Turning to `CCc1noc(CN(CCC2CCCCC2)CC(N)=O)n1`, the cytotoxicity at 70.5 h was -14.6%.

For `C=C(C)CN(CC)C(=O)c1cc(F)ccc1N1CCN(C)CC1`, the cytotoxicity at 70.5 h was -12.2%. On to `Cc1ccc(C(=O)NCC(c2cnn(C)c2)N(C)C)c(O)c1` (stereo unspecified), for which the cytotoxicity at 70.5 h came out at 25.6%.

For the compound `Cc1c(C2CC2)n[nH]c1NC(=O)C1CCCN(C(=O)NCC(C)C)C1` (stereo unspecified), the cytotoxicity at 70.5 h is -4.52%.

As to `CCc1cc(CNC(=O)C2CCCN(C(=O)NCC(C)C)C2)[nH]n1` (stereo unspecified), the cytotoxicity at 70.5 h was -11.9%. With `Cc1ccc(-n2cc(S(=O)(=O)Nc3cccc(C(=O)O)c3C)cn2)cc1`, the cytotoxicity at 70.5 h was -12.2%.

On to `Cc1n[nH]c(C)c1NC(=O)C1CCCN(C(=O)NCC(C)C)C1` (stereo unspecified), for which the cytotoxicity at 70.5 h was -5.82%.

On to `CC(C)N(CC(N)=O)C(=O)c1cc(F)ccc1N1CCN(C)CC1`, for which the cytotoxicity at 70.5 h is -5.36%. For `CCC(=O)N(CCC(=O)O)Cc1ccc(F)c(F)c1` the value was -7.91%. For `CC(=O)c1ccc(NC(=O)C(NC(=O)Nc2ccccc2)C(C)C)cc1` (stereo unspecified), the cytotoxicity at 70.5 h was -10.8%.

Turning to `Cc1ccc(F)c2c1CCCN2C(=O)c1cn(CC(=O)N(C)C)nn1`, the cytotoxicity at 70.5 h is -7.17%. For the compound `COCCN(CC(C)C)C(=O)c1cccc(Nc2cnccn2)c1`, the cytotoxicity at 70.5 h was -13.9%.

For `COCCCC(=O)N(CCC(=O)O)Cc1ccc(F)c(F)c1`, the cytotoxicity at 70.5 h is -12.3%.

As to `COc1ccccc1NCC(=O)NCc1cc[nH]n1`, the cytotoxicity at 70.5 h is 26.9%. Take `COc1ncnc(N)c1CNCC(C)Oc1ccccc1Cl` (stereo unspecified): the cytotoxicity at 70.5 h is -3.69%. Turning to `COc1ccc(CNC(=O)CNc2ccccc2OC)cc1`, the cytotoxicity at 70.5 h was determined as 2.91%. Consider `CCn1cnnc1CNC(=O)C1COc2ccc(Cl)cc2C1` (stereo unspecified), for which the cytotoxicity at 70.5 h was -3.41%. As for `CCCC(C(=O)NC1CCN(S(C)(=O)=O)CC1)c1ccccc1` (stereo unspecified), the figure is -4.97%; as for `O=C(NCC(=O)N1CC2(CCCC2)c2c(F)cccc21)C1CC1`, 0.771%; as for `CCCc1cc(N2CCCC2Cn2nc(C)cc2C)n2ncnc2n1` (stereo unspecified), -5.55%.

`CCCc1cc(N2CCCCC2Cn2cc(C)cn2)n2ncnc2n1` (stereo unspecified): the cytotoxicity at 70.5 h was -6.83%. As for `COc1cccc(F)c1C(C)NC(=O)NCCc1ccc(C)nc1` (stereo unspecified), the cytotoxicity at 70.5 h is 29.6%. `COC(=O)c1ccc(N2CCC(N(C)c3ccccc3)CC2)nn1`: the cytotoxicity at 70.5 h was determined as 3.35%. For `CCOc1cccc(COC(=O)c2ccc(Cl)cn2)n1` the value was -8.76%. For `CCOc1cccc(COC(=O)c2cc(Cl)ccn2)n1` the value was 25.2%; for `CCOc1cccc(COC(=O)c2scnc2C)n1`, 5.38%. `O=S(=O)(c1ccc(Cl)cc1)N1CCC(OCc2ccccn2)C1` (stereo unspecified): the cytotoxicity at 70.5 h stood at 2.04%. As for `N#Cc1cccc(S(=O)(=O)CCN2CCOC2=O)c1`, the figure is -8.07%; as for `CC(C)Cc1nc(CNCc2cccc(N3CCCC3=O)c2)no1`, -20.4%. `CN(Cc1ccncc1)C(CO)c1cccc(F)c1` (stereo unspecified): the cytotoxicity at 70.5 h is -27.2%. For `CC(C)c1nsc(N2CCC(OCCN3CCOCC3)CC2)n1`, the cytotoxicity at 70.5 h is -22.2%. Consider `CC(NC1CCN(CC(=O)N(C)C)CC1)c1cnn(C(C)C)c1` (stereo unspecified), for which the cytotoxicity at 70.5 h is -14.3%. For `CC(NC1CCN(CCc2ccncc2)CC1)c1cnn(C(C)C)c1` (stereo unspecified) the value was -18%; for `CN(Cc1ccccn1)C(CO)c1cccc(Br)c1` (stereo unspecified), -1.08%; for `CCOC(=O)c1cnn(C2CCN(C(=O)CC3C=CCC3)CC2)c1N` (stereo unspecified), -1.64%.

For the origin of these results see ChEMBL document CHEMBL3507680, “University of Dundee, Gates Library screen for HepG2 cell viability”.
